Key:
Plutella xylostella = assay: Pesticidal effect on Plutella xylostella by bait crop immersion treatment; format: in vivo; conditions: 48 h, 0.8 ppm alone (Comparative Example 4-2), third-instar larvae, 2 days after, 25° C.
Procedure: Test Example 1: Pesticidal Effect on Plutella xylostella by Bait Crop Immersion Treatment
To 10 mg of the compound (1) was added 0.2 ml of acetone containing 5% of Tween 20 (product name: SOLGEN (registered trademark) TW-20, manufactured by Dai-ichi Kogyo Seiyaku Co., Ltd.) to cause dissolution, and the solution was diluted with a 5,000-fold diluted solution of a spreading agent (product name: Dine (registered trademark), manufactured by Sumitomo Chemical Garden Products Inc.) to prepare a diluted liquid of the compound (1). […] The cup was stored in a constant temperature breeding room (25° C.), and the number of dead larvae was counted 2 days after, and the mortality was determined by the following equation [1]. […]
(§1) To 10 mg of the compound (13) was added 0.2 ml of acetone containing 5% of Tween 20 (product name: SOLGEN (registered trademark) TW-20, manufactured by Dai-ichi Kogyo Seiyaku Co., Ltd.) to cause dissolution, and the solution was diluted with a 5,000-fold diluted solution of a spreading agent (product name: Dine (registered trademark), manufactured by Sumitomo Chemical Garden Products Inc.) to prepare a diluted liquid of the compound (13). […] The cup was stored in a constant temperature breeding room (25° C.), and the number of dead larvae was counted 2 days after, and the mortality was determined by the above equation [1].

Spodoptera litura = assay: Pesticidal effect on Spodoptera litura by bait crop immersion treatment; format: in vivo; conditions: 48 h, fourth-instar larvae, 2 days after, 25° C.
Procedure: Mortality (%)=(dead larvae number/tested larvae number)×100 Equation [1]
Test Example 3: Pesticidal Effect on Spodoptera litura by Bait Crop Immersion Treatment
as §1, with “(13) or (15)” for “(13)”, “compound. A commercially available pyriproxyfen emulsifiable concentrate manufactured by Sumitomo Chemical Co., Ltd. under the product name of Lano (registered trademark) emulsifiable concentrate was diluted with a 5,000-fold diluted solution of a spreading agent (product name: Dine (registered trademark), manufactured by Sumitomo Chemical Garden Products Inc.) to prepare a diluted liquid of pyriproxyfen. These diluted liquids were mixed to prepare a test solution of prescribed concentration.” for “compound (13).”

CC(COc1ccc(Oc2ccccc2)cc1)Oc1ccccn1 (racemic) [pyriproxyfen, 4-phenoxyphenyl (RS)-2-(2-pyridyloxy)propyl ether]
mortality at 0.8 ppm (Plutella xylostella): 40%
mortality at 0.2 ppm (Spodoptera litura; 0.2 ppm alone (Comparative Examples 5-2, 7-2)): 30%
mortality at 3.13 ppm (Spodoptera litura; 3.13 ppm alone (Comparative Example 6-2)): 50%
